{
  "source": "patent US20110212909A1",
  "about": "“Use of Ginsenoside Compound K in the Preparation of a Medicament for the Prevention and Treatment of Atherosclerosis” (priority 2008, published 2011)",
  "key": {"[1]": {"test_system": "LXRα mRNA", "assay": "Real-time quantitative PCR of LXRα mRNA in foam cells", "assay_type": "cell-based", "details": "25 μM, rat foam cells", "protocol": "FIG. 5 provides effects of a ginsenoside compound K (C-K, 25 μM) and pyrrolidine dithiocarbamate (PDTC, 25 μM) on the foam cell LXRα mRNA expression. a: P<0.05, vs foam cell group. PDTC (25 μM) C-K (25 μM) (n=5).\n(§1) (1) Material and reagents (the same as Examples 2).\n(§2) (2) real-time quantitative PCR analysis (a reference method: Zhang Yiguan, Li Xiaohui, Fan Jishan, Zhang Haigang, Li Shuhui, Liao Wenqiang, Pang Yan, Jia Yi. Total panax notoginsenosides suppress atherosclerosis formation in rats by means of antiinflammatory and blood fat regulating action. Progress in Modern Biomedicine. 2007, 27 (11): 1601-1607).\n(§3) Data was expressed as x±s, variance analysis were carried out between groups by SPSS 13.0 software."}, "[2]": {"test_system": "Kunming mice", "assay": "Primary survey for toxicity in mice (gavage, 14 days)", "assay_type": "in vivo", "protocol": "40 Kunming mice (weight 18-22 g) were randomly divided into blank group of 20 mice, and ginsenoside compound K group of 20 mice, wherein male and female mice were fifty-fifty in each group. Fasting was carried out before trial for 16 h, allowing mice to freely drink water. Each mouse in drug group was gavaged with ginsenoside compound K (bought from) suspension according to a dose of 400 mg/kg, and blank group was gavaged equivalent amount of distilled water, with administration carried out once a day. Observation was carried out for 14 days after administration, wherein mice were weighted and animal responses were observed each day. The mice were weighted on fourteenth day of the trial, then were sacrificed and dissected, and tissue change of mice's major organs such as heart, liver, spleen, lung, and kidney were observed.\nThere was no phenomena such as abnormal crying, tremor, convulsion, dyskinesias, salivation, lacrimation, nose running, respiration difficulty, rapid heartbeat or slow heartbeat, diarrhea, constipation, intestinal tympanites in drug group mice; mice's hair was glossy; No mouse died in 14 days of administration."}, "[3]": {"test_system": "ABCA1 mRNA", "assay": "Real-time quantitative PCR of ABCA1 mRNA in foam cells", "assay_type": "cell-based", "details": "25 μM, rat foam cells", "protocol": "FIG. 4 provides effects of a ginsenoside compound K (C-K, 25 μM) and pyrrolidine dithiocarbamate (PDTC, 25 μM) on the foam cell ABCA1 mRNA expression. a: P<0.05, vs foam cell group. PDTC (25 μM) C-K (25 μM) (n=5).\nas §1, §2, §3"}, "[4]": {"test_system": "perilipin mRNA", "assay": "Real-time quantitative PCR of perilipin mRNA in foam cells", "assay_type": "cell-based", "details": "25 μM, rat foam cells", "protocol": "FIG. 2 provides effects of a ginsenoside compound K (C-K, 25 μM) and pyrrolidine dithiocarbamate (PDTC, 25 μM) on the foam cell perilipin mRNA expression.\na: P<0.05, vs. foam cells group. PDTC (25 μM) C-K (25 μM) (n=5).\nas §1, §2, §3"}, "[5]": {"test_system": "perilipin protein", "assay": "Protein expression of perilipin in foam cells", "assay_type": "cell-based", "details": "25 μM, rat foam cells", "protocol": "FIG. 3 provides effects of a ginsenoside compound K (C-K, 25 μM) and pyrrolidine dithiocarbamate (PDTC, 25 μM) on the protein expression of perilipin in foam cell. a: P<0.01, vs foam cell group PDTC (25 μM) C-K (25 μM) (n=5).\nas §1, §3"}, "[6]": {"test_system": "macrophage-derived foam cells of rat abdominal cavity", "assay": "Assay of amount of TC and CE in ox-LDL induced macrophage-derived foam cells", "assay_type": "cell-based", "protocol": "1. Experiment animal: SD rats, male, 200-250 g, bought from the third Military Medical University Experiment Animal Center.\n2. Reagents: RPMI 1640 culture medium free of phenol red bought from Invitrogen company; LDL (115 mg/mL) bought from Peking Union Medical College; total cholesterol kit and free cholesterol kit bought from Shanghai Mind Bioengineering Limited Company; ginsenoside compound K (hereinafter being called C-K for short. White powders, purity 99%), provided by Kunming Nuowei Jinshen Bioengineering limited company supply (batch number: NTGA070521, details see China invention patent 200710066011. X “a method of preparing rare ginsenoside compound K by streptomycete fermentation of Sanchi saponins”).\nLDL was placed into PBS comprising 10 μM Cu^2+, dialysed at 37° C. for 12 h, then was placed into PBS comprising 0.01% EDTA, and dialysed at 4° C. for 24 hours before stopping oxidization, then was subjected to filtration sterilization, and stored for use.\n4. Culture of macrophage and establishment of foam cells model (available literature: Jia Yi, Li Xiaohui, Xing Mao, Hei Xuefeng, Liu Ya, He Cuiyao. Studies on affect of various combinations of 3 sorts of monomers in total panax notoginsenosides on formation of mouse macrophage-derived foam cells. Journal of China Pharmacy, 2008, 19 (2), 881-883.)\neach rat were intraperitoneally injected with 2 mL RPMI 1640 culture solution free of serum and phenol red, and it was sacrificed by cervical dislocation after 20 minutes, and was soaked in 75% ethanol for 10 minutes, then rat's belly was cut open, and fluids in abdominal cavity were collected, and centrifugated at 750 r/min for 5 minutes, and then cells were collected, and cells concentrations were adjusted to […] by using RPMI 1640 culture solution which were free of phenol red and comprised 10% Fetal Calf Serum. 10 pieces of 6 wells plate was added 1 mL cells suspension per well, and was placed into an incubator of 5% CO2 at 37 °C, and cultured for two hours, then supernatant was discarded, and nonadhesive cells was washed by using PBS. Original culture medium was discarded. Culture was carried out for 48 hours after adding 5 mL culture medium comprising 20 mg/L ox-LDL, and thereby foam cells were formed.\n[…] were divided into ox-LDL model group, pyrrolidine dithiocarbamate (PDTC) (drugs source: Sigma), control group and C-K interference group. Each group had 5 pieces of plates. […]\nCulture solution was aspirated, and lipid in foam cells was extracted by Folch method (reference: Folch J et al, A simple method for the isolation and purification of total lipides from animal tissues. J Biol Chem, 1957, 226 (1): 497-509), according to direction for use of kit.\nData was expressed as x±s, and variance analysis was carried out between groups by SPSS 13.0 software."}, "[7]": {"test_system": "CD36 mRNA", "assay": "Real-time quantitative PCR of CD36 mRNA in foam cells", "assay_type": "cell-based", "details": "25 μM, rat foam cells", "protocol": "FIG. 1 provides effects of a ginsenoside compound K (C-K, 25 μM) and pyrrolidine dithiocarbamate (PDTC, 25 μM) on the foam cell CD36 mRNA expression. a: P<0.05, vs foam cell group; b: P<0.05, vs PDTC. PDTC (25 μM) C-K (25 μM) (n=5).\n(1) Material and reagents (the same as Example 2).\nas §2, with “27(11):” for “27 (11):”\nas §3"}},
  "note": "Marks after values point to notes of the source that are not given here.",
  "data": [
    {"smiles": "CC(C)=CCC[C@](C)(OC1OC(CO)C(O)C(O)C1O)C1CC[C@]2(C)C1[C@H](O)CC1[C@@]3(C)CC[C@H](O)C(C)(C)C3CC[C@]12C", "note": "(stereo partly drawn) [C-K, 20-O-β-D-glucopyranosyl 20-(S)-protopanaxadiol]", "values": [
      {"measurement": "expression of LXRα mRNA in foam cells compared with model group", "setting": "[1]", "value": "significantly up-regulated"},
      {"measurement": "mice's response to acute toxicity", "setting": "[2]; Kunming mice, 400 mg/kg gavage", "value": "not obvious"},
      {"measurement": "time until signs after gavage (eye closed, lying down, reduced autonomic activities, appetite descent) restored normal", "setting": "[2]; Kunming mice, 400 mg/kg gavage", "value": "≤ 2", "unit": "h"},
      {"measurement": "death of mice in 14 days of administration", "setting": "[2]; Kunming mice, 400 mg/kg gavage once a day, 14 days", "value": "No mouse died"},
      {"measurement": "organs observed by naked eye after dissection", "setting": "[2]; mouse, in vivo, 400 mg/kg", "value": "no abnormality in each organ"},
      {"measurement": "expression of ABCA1 mRNA in foam cells compared with model group", "setting": "[3]", "value": "significantly up-regulated"},
      {"measurement": "expression of perilipin mRNA in foam cells compared with model group", "setting": "[4]", "value": "significantly down-regulated"},
      {"measurement": "expression of perilipin proteins in foam cells compared with model group", "setting": "[5]", "value": "significantly down-regulated"},
      {"measurement": "TC and CE amount in foam cells compared with model group", "setting": "[6]; 25 nM as printed in text", "value": "significantly lowered"},
      {"measurement": "CE in foam cells", "setting": "[6]; 25 μM, 48 hours, rat foam cells, x ± s, n = 5, ox-LDL model group 15.24 ± 2.38", "value": "28.12 ± 3.12^a"},
      {"measurement": "CE/TC in foam cells", "setting": "[6]; 25 μM, 48 hours, rat foam cells, x ± s, n = 5, ox-LDL model group 59.56 ± 2.96", "value": "47.01 ± 3.80^a %"},
      {"measurement": "TC in foam cells", "setting": "[6]; 25 μM, 48 hours, rat foam cells, x ± s, n = 5, ox-LDL model group 87.20 ± 2.19", "value": "59.72 ± 2.38^a"},
      {"measurement": "change of CD36 mRNA expression in foam cells compared with model group", "setting": "[7]", "value": "not obvious"}
    ]}
  ]
}
